In patent EP4538258A1, “IMIDAZOLIDINYL VANILLIC ACID ETHER DERIVATIVE AND USE THEREOF” (Hefei Institute of Pharmaceutical Industry Co., Ltd., priority 2022, dated 2023):
Counter-ions that a name gives are not always drawn. Like-named read-outs stand apart in the source and are kept apart here.

Columns and labels:
[1] = Pharmacokinetics in vivo in rats after gavage; parameters: species or system SD male rats; conditions: rat, p.o. 15 mg/kg (calculated as Compound A), mean value
Procedure: Eighteen SD male rats (purchased from Weitong Lihua Experimental Animal Technology Co., Ltd., certificate number: 20211103Aazz0619000910), weighing 240-280 g, were randomly divided into 6 groups, with 3 rats in each group. The animals were fasted overnight before administration. On the day of administration, the compounds of Examples 3, 4, 5, 6, Compound A, and Compound A methyl ester were gavaged to the animals in each groups respectively, and the dosage was 15 mg/kg (calculated as Compound A). Before administration and 0.25, 0.5, 1, 2, 4, 6, 8, and 24 h after administration, 0.15 mL of blood was collected from the animals through the jugular sinus and placed in an EDTA-K2 anticoagulant tube containing 3 µL of dichlorvos aqueous solution (10 mg/mL). After centrifugation, plasma was collected, and was placed in the sample, and then 10 µL of plasma sample was taken, 500 µL of acetonitrile containing IS (verapamil 5 ng·mL^-1, glibenclamide 50 ng·mL^-1, tolbutamide 200 ng·mL^-1, and diclofenac 200 ng·mL^-1) was added, vortexed for 10 min, and then centrifuged at 3700 rpm for 10 min, and then 70 µL of supernatant and 70 µL of water were added, and vortexed for 10 min. An aliquot of 2 µL of the mixture was injected into the LC-MS/MS system (Triple Quad 5500+: LC-MS-MS-022) to measure blood concentration of the compounds. […]

[2] = system: arteriovenous bypass thrombi; experiment: Antithrombotic activity in vivo: arteriovenous bypass thrombosis in rats; parameters: species or system SD rats; conditions: single gavage 15 mg/kg; for inhibition at 15 mg/kg: Rattus norvegicus, po, vs blank control; for Thrombus wet weight: 1 h after administration, blood flow 15 min; for Thrombus wet weight / Thrombus dry weight: x±s, n=8; for Thrombus dry weight: thread dried at 70°C
Procedure: 104 SD rats (purchased from Weitong Lihua Experimental Animal Technology Co., Ltd., certificate number: 20211103Aazz0619000910), male, weighing 180-220 g, were randomly divided into 13 groups according to body weight after 7 days of adaptive feeding, with 8 rats in each group, namely, normal control group, compound A group, compound A methyl ester group, and Example 1-10 compound groups respectively. Each group was given corresponding drugs by gavage (dosage was 15 mg/kg), and the normal control group was given an equal volume of solvent, all of which were given by single gavage. One hour after the last administration, the rats were anesthetized with 3% chloral hydrate intraperitoneally, and the right common carotid artery and left external jugular vein were isolated in a supine position. A polyethylene tube was taken with an inner diameter of 1.5 mm and a length of 10 cm, a 6 cm long silk thread (preweighed) was inserted into it, and the polyethylene tube was filled with normal saline solution of heparin (50 U/ml). One end of the polyethylene tube was inserted into the left external jugular vein, heparin (50 U/kg) was injected, and the other end was inserted into the right common carotid artery. After blood flow was opened for 15 minutes, the blood flow was interrupted and the silk thread was quickly taken out and weighed. The total weight minus the original silk thread weight was the wet weight of the thrombus. The silk thread was placed in an oven for drying at 70°C. The dry weight of the thrombus was obtained by weighing the silk thread minus the original silk thread weight, and the inhibition rate was calculated. [formula] [formula]

[3] = read-out: Inhibition rate (thrombus dry weight)
[4] = read-out: Inhibition rate (thrombus wet weight)

SMILES | MRTo-t [1] | inhibition at 15 mg/kg [2, 3] | inhibition at 15 mg/kg [2, 4] | Thrombus wet weight [2] | Thrombus dry weight [2]
COC(=O)c1ccc(OCCn2ccnc2)c(OC)c1 [Compound A methyl ester, reference compound] | 6.5 h | 32.4% | 29.4% | 71.3±8.7^★★ mg | 23.0±8.2^★★ mg
COc1cc(C(=O)O)ccc1OCCn1ccnc1 [Compound A] | 5.4 h | – | – | – | –
CCCOC(=O)c1ccc(OCCn2ccnc2)c(OC)c1 [Example 1, propyl 4-(2-(1H-imidazol-1-yl)ethoxy)-3-methoxybenzoate] | – | 52.9% | 45.9% | 54.8±12.7^★★*## mg | 16.0±3.4^★★*## mg
COc1cc(C(=O)OC(C)C)ccc1OCCn1ccnc1.Cl [Example 2, isopropyl 4-(2-(1H-imidazol-1-yl)ethoxy)-3-methoxybenzoate hydrochloride] | – | 54.8% | 48.3% | 52.3±10.5^★★**## mg | 15.4±5.0^★★*## mg
COc1cc(C(=O)OCCCCCC(=O)O)ccc1OCCn1ccnc1 [Example 3, 6-(4-(2-(1H -imidazol-1-yl)ethoxy)-3-methoxybenzoyloxy)hexanoic acid] | – | 64% | 53.3% | 47.3±6.3^★★**## mg | 12.3±5.7^★★**## mg
COc1cc(C(=O)OCOC(=O)OC(C)C)ccc1OCCn1ccnc1 [Example 5, ((isopropoxycarbonyl)oxy)methyl-4-(2-(1H -imidazol-1-yl)ethoxy)-3-methoxybenzoate] | – | 55.9% | 53.5% | 47.0±8.7^★★**## mg | 15.0±4.5^★★*## mg
COc1cc(C(=O)OC(C)OC(C)=O)ccc1OCCn1ccnc1 (stereo not drawn) [Example 6, 1-acetoxyethyl-4-(2-(1H-imidazol-1-yl)ethoxy)-3-methoxybenzoate] | – | 58.1% | 55.4% | 45.1±8.6^★★**## mg | 14.3±5.0^★★**## mg
COc1cc(C(=O)Nc2ccc(C[C@H](N)C(=O)O)cc2)ccc1OCCn1ccnc1.Cl [Example 7, (S)-4-(4-(2-(1H-imidazol-1-yl)ethoxy)-3-methoxybenzamido)phenylalanine hydrochloride] | – | 52.6% | 46.2% | 54.4±9.8^★★*## mg | 16.1±3.3^★★*## mg
COc1cc(C(=O)Nc2ccc(C[C@@H](N)C(=O)O)cc2)ccc1OCCn1ccnc1 [Example 8, (R)-3-(4-(4-(2-(1H-imidazol-1-yl)ethoxy)-3-methoxybenzamido)phenyl)-2-propionic acid hydrochloride] | – | 57% | 48.6% | 52.0±13.5^★★**## mg | 14.6±3.8^★★**## mg
COc1cc(C(=O)Oc2ccc(C[C@H](N)C(=O)O)cc2)ccc1OCCn1ccnc1.Cl [Example 9, (S)-4-(4-(2-(1H-imidazol-1-yl)ethoxy)-3-methoxybenzoyloxy)phenylalanine hydrochloride] | – | 57.4% | 49.4% | 51.1±12.7^★★**## mg | 14.5±6.2^★★**## mg
COc1cc(C(=O)Oc2ccc(C[C@@H](N)C(=O)O)cc2)ccc1OCCn1ccnc1.Cl [Example 10, (R)-4-(4-(2-(1H-imidazol-1-yl)ethoxy)-3-methoxybenzoyloxy)phenylalanine hydrochloride] | – | 55.1% | 47.5% | 53.1±11.8^★★**## mg | 15.3±2.8^★★*## mg
